Source: patent publication US20100286233A1, “PERIPHERAL AND NEURAL INFLAMMATORY CROSSTALK” (University of Rochester, priority 2006, published 2010)
Read-outs that look alike come from different tables or passages of the source.

Assays:
[1] = system: C2C12 cell line; experiment: C2C12 conversion to osteoblastic phenotype, alkaline phosphatase histochemistry; format: cell-based
Description: In vitro studies: The C2C12 cell line, an in vitro model of chondrocyte differentiation and maturation, was obtained from ATCC and cultured in DMEM plus 10% normal bovine serum for 4 days as previously described (Katagiri, T., et al. 1994). In addition, cells were treated with BMP-2 (300 ng/mL) or alternatively with BMP-2 plus PGE2 (10^−8M) or recombinant IL-1β (10 ng/mL) or butaprost (10^−8M) in the culture medium. At the end of the experiment, cells were fixed with 10% formalin. Alkaline phosphatase expression was evaluated using the BCIP/NBT histochemistry method (Vector Labs, Burlingame Calif.). Positively-stained cells were counted in 10 random 20× fields using an inverted Olympus CK41 microscope.

[2] = system: avian mesenchymal limb bud cells; conditions: cited from earlier work
[3] = system: growth plate; conditions: systemic injection; cited from earlier work
[4] = system: mice; conditions: cited from earlier work
[5] = system: μ-receptor; conditions: in vivo; cited from earlier work
[6] = target: mouse recombinant DOR-1 receptor (Mus musculus, UniProt P32300); conditions: cited from earlier work
Chain of mouse recombinant DOR-1 receptor (P32300 whole entry): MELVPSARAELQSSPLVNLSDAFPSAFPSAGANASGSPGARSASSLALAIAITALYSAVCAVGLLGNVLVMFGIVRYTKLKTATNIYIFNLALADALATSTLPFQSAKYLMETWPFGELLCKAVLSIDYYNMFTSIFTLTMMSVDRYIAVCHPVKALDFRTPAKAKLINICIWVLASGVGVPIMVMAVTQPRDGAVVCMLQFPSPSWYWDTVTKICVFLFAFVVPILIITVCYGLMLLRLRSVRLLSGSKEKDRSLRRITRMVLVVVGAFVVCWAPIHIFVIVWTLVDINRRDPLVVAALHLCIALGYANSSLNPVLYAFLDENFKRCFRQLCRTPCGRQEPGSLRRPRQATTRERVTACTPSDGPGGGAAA

[7] = target: μ-receptors (Homo sapiens, UniProt P35372); conditions: cited from earlier work
Chain of μ-receptors (P35372 whole entry): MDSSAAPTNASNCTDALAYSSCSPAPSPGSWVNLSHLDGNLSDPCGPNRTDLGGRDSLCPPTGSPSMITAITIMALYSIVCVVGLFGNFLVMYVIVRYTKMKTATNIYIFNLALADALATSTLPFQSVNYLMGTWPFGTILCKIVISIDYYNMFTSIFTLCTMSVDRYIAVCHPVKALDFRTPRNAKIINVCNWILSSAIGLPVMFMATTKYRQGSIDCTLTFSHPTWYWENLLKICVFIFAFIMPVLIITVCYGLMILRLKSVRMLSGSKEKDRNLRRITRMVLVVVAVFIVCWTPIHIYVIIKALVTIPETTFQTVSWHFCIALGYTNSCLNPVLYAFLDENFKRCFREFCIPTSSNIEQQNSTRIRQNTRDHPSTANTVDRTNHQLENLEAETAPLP

[8] = target: κ-receptors (Homo sapiens, UniProt P41145); conditions: cited from earlier work
Chain of κ-receptors (P41145 whole entry): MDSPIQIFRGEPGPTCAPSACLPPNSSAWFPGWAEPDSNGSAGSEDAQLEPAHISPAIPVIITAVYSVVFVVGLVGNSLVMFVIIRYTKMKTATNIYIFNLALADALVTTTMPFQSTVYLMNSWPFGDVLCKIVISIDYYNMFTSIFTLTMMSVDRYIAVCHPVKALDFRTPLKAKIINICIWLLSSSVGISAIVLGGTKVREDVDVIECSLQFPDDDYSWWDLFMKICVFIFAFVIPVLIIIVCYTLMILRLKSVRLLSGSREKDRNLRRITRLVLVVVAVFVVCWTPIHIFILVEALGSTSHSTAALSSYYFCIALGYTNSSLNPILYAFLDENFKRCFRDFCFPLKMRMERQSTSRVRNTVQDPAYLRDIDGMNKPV

[9] = target: δ-receptors (Homo sapiens, UniProt P41143); conditions: cited from earlier work
Chain of δ-receptors (P41143 whole entry): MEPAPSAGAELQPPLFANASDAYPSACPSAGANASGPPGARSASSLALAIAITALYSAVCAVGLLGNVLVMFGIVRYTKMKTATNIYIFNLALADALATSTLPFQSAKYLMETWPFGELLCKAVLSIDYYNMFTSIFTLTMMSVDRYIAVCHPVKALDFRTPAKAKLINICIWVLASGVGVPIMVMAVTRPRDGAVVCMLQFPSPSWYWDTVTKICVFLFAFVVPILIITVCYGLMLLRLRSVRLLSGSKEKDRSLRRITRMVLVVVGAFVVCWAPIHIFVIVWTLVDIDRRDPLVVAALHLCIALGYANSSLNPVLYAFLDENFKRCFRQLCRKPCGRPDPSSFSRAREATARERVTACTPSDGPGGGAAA

[10] = system: C57BL/6 mice; experiment: Intracisternal IL-1β injection, brain stem IHC for GFAP and CGRP; format: in vivo, mouse; conditions: 2 ng in 2 μl into the cisterna magna, two days later
Description: Murine IL-1β (2 ng in 2 μl of normal saline) was injected […] in the cisterna magna of deeply anesthetized C57BL/6 mice (anesthetic: ketamine 40 mg/kg IP). Two days later, the mice were sacrificed, […] transcardially with 4% paraformaldehyde in phosphate buffered saline solution and the brain stem was harvested, frozed and cut at 18 μm thick horizontal sections which were collected on glass slides. The histology slides were then analyzed by immunohistochemistry (IHC) using antibodies raised against calcitonin gene-related peptide (CGRP; […]) and glial fibrillary acidic protein (GFAP; Dako).

[11] = MOR-1 knockout mice, disruption in exon-1

CCCCC[C@H](O)/C=C/[C@H]1[C@H](O)CC(=O)[C@@H]1C/C=C\CCCC(=O)O [PGE2, prostaglandin E2]
increase in the number of cells expressing alkaline phosphatase ([1]; BMP-2 plus PGE2 (10^-8M), 4 days, versus BMP-2): approximately 5 fold | conversion of differentiating C2C12 cells to an osteoblastic phenotype ([1]; under the stimulus of BMP-2): acceleration of their conversion to an osteoblastic phenotype | chondrogenesis [2]: enhances chondrogenesis | chondrogenesis ([2]; in the presence of indomethacin): stimulates chondrogenesis | growth plate and limb growth [3]: thinner growth plate with decreased size of hypertrophic chondrocytes and reduced limb growth

CC(=O)Oc1ccc2c3c1O[C@H]1[C@@H](OC(C)=O)C=C[C@H]4[C@@H](C2)N(C)CC[C@@]341 [heroin]
antinociception [4, 11]: still produce antinociception | antinociception ([4]; mice of the CXBX strain): potently antinociceptive

COc1ccc2c(c1)c(CC(=O)O)c(C)n2C(=O)c1ccc(Cl)cc1 [indomethacin]
chondrogenesis [2]: inhibit chondrogenesis

CN1CC[C@]23c4c5ccc(O)c4O[C@H]2[C@@H](O[C@@H]2O[C@H](C(=O)O)[C@@H](O)[C@H](O)[C@H]2O)C=C[C@H]3[C@H]1C5 [morphine-6b-glucuronide]
antinociception [4, 11]: still produce antinociception | antinociception ([4]; mice of the CXBX strain): potently antinociceptive

CN1CC[C@]23c4c5ccc(O)c4O[C@H]2[C@@H](O)C=C[C@H]3[C@H]1C5 [morphine]
antinociception [4, 11]: not | antinociception ([4]; mice of the CXBX strain): poor antinociceptive agent

C=CCN1CC[C@]23c4c5ccc(O)c4O[C@H]2/C(=N\N)CC[C@@]3(O)[C@H]1C5 [naloxazone]
induction of morphine dependence [5]: did not block | morphine-induced antinociception [5]: selectively blocked | morphine-induced respiratory depression [5]: did not block

Oc1ccc2c3c1O[C@H]1c4oc5ccccc5c4C[C@@]4(O)[C@@H](C2)N(CC2CC2)CC[C@]314 [naltriben, Naltriben]
displacement of [3H]-diprenorphine binding [6]: more highly displaced by naltriben than BNTX

β-endorphin: endogenous opioid peptide from pro-opiomelanocortin, SEQ ID NO: 129
affinity for μ-receptors [7]: equiactive at μ- and δ-receptors | affinity for κ-receptors [8]: much lower affinity | affinity for δ-receptors [9]: equiactive at μ- and δ-receptors

B1: IL-1β: murine interleukin-1β cytokine injected into the cisterna magna (protein, UniProt P10749 118-269, looked up)
Interleukin-1 beta: VPIRQLHYRLRDEQQKSLVLSDPYELKALHLNGQNINQQVIFSMSFVQGEPSNDKIPVALGLKGKNLYLSCVMKDGTPTLQLESVDPKQYPKKKMEKRFVFNKIEVKSKVEFESAEFPNWYISTSQAEHKPVFLGNNSGQDIIDFTMESVSS
expression of CGRP in the descending trigeminal nucleus (medullary dorsal horn) [10]: induced | expression of GFAP in the descending trigeminal nucleus (medullary dorsal horn) [10]: induced
